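Each compound was tested at five concentrations against cells in 96-well plates for 48 hours. TGI denotes the concentration required for complete inhibition of growth.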
Key:
Test in all cases: NCI tumour cell line growth inhibition, 48 h
[1] = tested on: UACC-257 melanoma
[2] = tested on: SK-MEL-28 melanoma
[3] = tested on: U251 CNS
[4] = tested on: NCI-H23 lung
[5] = tested on: KM12 colon
[6] = tested on: K-562 leukemia
[7] = tested on: KM20L2 colon
[8] = tested on: OVCAR-5 ovarian
[9] = tested on: A498 renal
[10] = tested on: MCF7 breast
[11] = tested on: COLO 205 colon
[12] = tested on: LOX IMVI melanoma
[13] = tested on: BT-549 breast
[14] = tested on: MDA-N
[15] = tested on: HL-60(TB) leukemia
[16] = tested on: SF-539 CNS
[17] = tested on: M14 melanoma
[18] = tested on: PC-3 prostate
[19] = tested on: DU-145 prostate
[20] = tested on: LXFL 529 NSCLC

Row | SMILES | TGI [1] [µM] | TGI [2] [µM] | TGI [3] [µM] | TGI [4] [µM] | TGI [5] [µM] | TGI [6] [µM] | TGI [7] [µM] | TGI [8] [µM] | TGI [9] [µM] | TGI [10] [µM] | TGI [11] [µM] | TGI [12] [µM] | TGI [13] [µM] | TGI [14] [µM] | TGI [15] [µM] | TGI [16] [µM] | TGI [17] [µM] | TGI [18] [µM] | TGI [19] [µM] | TGI [20] [µM]
1 | COc1ccc(N[C@@H]2c3cc4c(cc3C(c3cc(OC)c(O)c(OC)c3)[C@H]3C(=O)OCC32)OCO4)cc1OC (stereo not given in full) | 38.5 | > 100 | > 67.5 | 1.92 | > 21.8 | > 100 | > 100 | > 100 | > 100 | > 100 | > 36.3 | > 100 | – | – | – | – | – | – | – | –
2 | COc1cc(C(=O)OC2CC34CCNC35CC(OC5(OC)C2O)c2cc3c(cc24)OCO3)ccc1O (stereo not given) | > 100 | > 100 | > 100 | > 100 | > 100 | > 100 | – | > 100 | > 100 | > 100 | > 100 | > 100 | > 100 | > 100 | > 100 | > 100 | > 100 | > 100 | > 100 | –
3 | S=C1Cc2c(-c3ccccc3)cc(-c3ccc(Cl)cc3)nc2-c2ccccc2N1 | 22.2 | > 31.9 | 2.34 | 19.8 | 51.3 | – | – | 51.4 | 4.27 | > 72.6 | > 42 | > 46.8 | 37.9 | 16.2 | > 100 | 10.8 | > 38.5 | 30.9 | 53.1 | –
4 | CCCCCC(/C=C/c1ncccc1OCCCCCC(=O)O)=N\NC1=NCCN1 | – | > 100 | – | – | > 100 | > 100 | > 100 | > 100 | – | – | > 100 | > 100 | – | – | > 100 | > 100 | > 100 | – | – | > 100
5 | C[Si](C)(C)/C=C/CN1C(=O)CCC1=O | – | > 100 | > 100 | > 100 | > 100 | > 100 | > 100 | > 100 | > 100 | – | > 100 | > 100 | – | – | > 100 | > 100 | > 100 | – | – | > 100
6 | COC(=O)c1cc2c(cc1C(=O)OC)[C@@]1(C)CCCC(C)(C)C1CC2 (stereo not given in full) | 62.8 | > 100 | 40.4 | > 100 | 30.6 | 76.1 | – | 38.1 | 32.4 | 32.7 | – | 36 | 85.9 | 78.8 | 31.9 | 95.7 | 70.8 | 51.1 | 33.7 | –
7 | Cc1ccc(CN2CCN(Cc3ccc(C)o3)C(C)C2)o1 (stereo not given) | > 100 | > 100 | > 100 | > 100 | > 100 | > 100 | – | > 100 | > 100 | > 100 | > 100 | > 100 | > 100 | > 100 | > 100 | > 100 | > 100 | > 100 | > 100 | –
8 | CC(=O)c1cccc(Nc2nc3ccccc3c3[nH]c4ccccc4c23)c1 | > 100 | – | 16.4 | > 100 | > 100 | > 100 | – | 96.3 | – | 4.22 | 5.81 | – | > 100 | > 100 | – | 18 | > 100 | 40.9 | > 100 | –
9 | N#CCCN(CCC#N)c1ccc(/C=C(/NC(=O)Nc2ccccc2Cl)NC(=O)c2cc([N+](=O)[O-])ccc2Cl)cc1 | – | > 100 | > 100 | – | > 100 | > 100 | > 100 | > 100 | – | – | > 100 | > 100 | – | – | – | > 100 | > 100 | – | – | > 100
10 | O=S(=O)(CF)OCCCCOS(=O)(=O)CF | – | > 100 | > 100 | > 100 | – | > 100 | > 100 | – | > 100 | – | > 100 | > 100 | – | – | > 100 | > 100 | > 100 | – | – | > 100
11 | CN(C(=O)c1ccccc1)c1ccc2c(c1)C(=O)c1ccccc1C2=O | > 100 | > 100 | > 100 | > 100 | > 100 | > 100 | > 100 | > 100 | – | – | > 100 | > 100 | – | – | – | – | > 100 | – | – | > 100
12 | CCCCCCCCCCCCCCCCCCOCC(O)CO (stereo not given) | > 25 | > 25 | > 25 | > 25 | > 25 | > 25 | > 25 | > 25 | > 3.96 | > 25 | > 25 | > 25 | – | – | > 21.4 | > 25 | – | – | – | –

From PubChem BioAssay (NCI)
